In patent publication US20260265329A1, “POLYPEPTIDE AND DERIVATIVE THEREOF, COMPOSITION, AND USE THEREOF” (HANGZHOU SCIWIND BIOSCIENCES CO., LTD., priority 2023, published 2026) one finds Relative activity and EC50 data, which are given here for three molecules.

The target of this test is T1, human amylin receptors (Homo sapiens, UniProt O60896+P30988).
T1 construct: host or cells: CHO-K1/Ga15/AMY3 cells, further stably transfected with a CRE-luciferase plasmid
T1 sequence (P30988 25-474): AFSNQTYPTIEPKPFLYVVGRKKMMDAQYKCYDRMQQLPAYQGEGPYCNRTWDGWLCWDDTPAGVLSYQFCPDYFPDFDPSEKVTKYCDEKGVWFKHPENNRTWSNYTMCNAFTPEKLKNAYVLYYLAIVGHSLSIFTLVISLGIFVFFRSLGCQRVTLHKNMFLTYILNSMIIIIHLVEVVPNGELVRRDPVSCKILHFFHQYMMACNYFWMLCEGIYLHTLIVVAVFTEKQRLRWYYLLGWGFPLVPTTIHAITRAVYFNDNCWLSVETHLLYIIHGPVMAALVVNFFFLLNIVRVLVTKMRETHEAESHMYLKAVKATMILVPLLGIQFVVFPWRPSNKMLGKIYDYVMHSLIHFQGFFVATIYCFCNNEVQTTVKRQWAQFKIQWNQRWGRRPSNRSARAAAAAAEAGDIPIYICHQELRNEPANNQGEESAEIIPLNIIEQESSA
T1 sequence (O60896 24-148 partner): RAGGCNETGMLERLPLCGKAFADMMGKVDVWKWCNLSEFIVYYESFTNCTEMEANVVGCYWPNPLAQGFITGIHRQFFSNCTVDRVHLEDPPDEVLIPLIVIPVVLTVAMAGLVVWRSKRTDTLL
Put plainly: Luciferase assay in stably transfected amylin receptor/CRE-luc CHO cell line. The format is cell-based. As to conditions: for Relative activity: EC50 ratio of Cagrilintide to the compound, Cagrilintide 100%; for EC50: amylin receptor/CRE-luc CHO cells, 24 hours incubation, luminescence. The source says: The objective of this assay is to test the potency of derivatives of polypeptides of the present application on human amylin receptors in vitro using a luciferase assay. Using the standard protocol, CHO-K1/Ga15/AMY3 cells (purchased from GenScript, with the calcitonin receptor and the receptor activity modifying peptide (RAMP) constructed already) were transfected with a plasmid containing a luciferase expression cassette driven by multiple copies of cAMP response elements (CREs). The cells were cultured in an F12 medium containing 200 μg/mL Zeocin, 2 μg/mL puromycin, 100 μg/mL hygromycin, and 400 μg/mL G418 to afford a stably transfected amylin receptor/CRE-luc cell line. The lyophilized powder from Example 1 was dissolved in 20 mM phosphate buffer solution with a pH of 7.0, and diluted in a growth medium (F12 culture medium containing 10% FBS) to give a derivative sample with an initial concentration of 10 nM, which was then subjected to a 5-fold serial dilution in the growth medium to obtain seven samples with concentrations between […]. In each well of a white 96-well plate, 50 μL of the tested sample solution was added with a corresponding concentration. The stably transfected amylin receptor/CRE-luc CHO cells were resuspended in the growth medium at a certain density, and 50 μL of the cell suspension was added at a density of about 20000 cells per well to the white 96-well plate containing the tested sample solution. After incubation of 24 hours at 37° C. and 5% CO2, 100 μL of a Luciferase substrate was added to each well, incubated for 3 minutes, and finally was tested for luminescence on SpectraMax L (Molecular Devices) with the software SoftMax Pro 7.0.3 GxP.

SMILES strings stand for the structures. Starred links: 1 amine or outer side, 2 acyl side, 3 side chain; linkers in the order of their positions; H or OH if unused. Non-standard residues stand in square brackets, D forms with d. Residues, ends and D or L forms follow the SMILES beside them. *: point of attachment. C20 diacid = O=C(O)CCCCCCCCCCCCCCCCCCC(=O)*; C16 diacid = O=C(O)CCCCCCCCCCCCCCC(=O)*; γGlu = O=C(O)[C@H](CCC(=O)[*:2])N[*:1]; Hyp = O=C(O)[C@@H]1C[C@@H](O)CN1; AEEA = NCCOCCOCC(=O)O

For the molecule `CC[C@H](C)[C@H](NC(=O)[C@@H]1CCCN1C(=O)[C@H](CCCCN)NC(=O)[C@H](CC(C)C)NC(=O)[C@H](CC(N)=O)NC(=O)[C@H](CC(N)=O)NC(=O)[C@H](CO)NC(=O)[C@H](CO)NC(=O)[C@H](Cc1c[nH]cn1)NC(=O)[C@H](CCCNC(=N)N)NC(=O)[C@H](CC(C)C)NC(=O)[C@H](Cc1ccccc1)NC(=O)[C@H](CC(=O)O)NC(=O)[C@H](C)NC(=O)[C@H](CC(C)C)NC(=O)[C@H](CCCNC(=N)N)NC(=O)[C@H](CCC(N)=O)NC(=O)[C@@H](NC(=O)[C@H](C)NC(=O)[C@H](C)NC(=O)[C@@H](NC(=O)[C@H](CO)NC(=O)[C@H](CC(C)C)NC(=O)[C@H](CCC(N)=O)NC(=O)[C@H](CO)NC(=O)[C@H](C)NC(=O)COCCOCCNC(=O)COCCOCCNC(=O)[C@H](CC(=O)O)NC(=O)CCCCCCCCCCCCCCCCCCC(=O)O)[C@@H](C)O)[C@@H](C)O)C(=O)N[C@@H](CC(C)C)C(=O)N1CCC[C@H]1C(=O)N1CCC[C@H]1C(=O)N[C@H](C(=O)N[C@@H](CC(N)=O)C(=O)N[C@H](C(=O)NCC(=O)N[C@@H](CO)C(=O)N[C@@H](CC(N)=O)C(=O)N[C@H](C(=O)N1C[C@H](O)C[C@H]1C(N)=O)[C@@H](C)O)C(C)C)[C@@H](C)O` [M34] ({C20 diacid}-D[AEEA][AEEA]ASQLSTAATQRLADFLRHSSNNLKPILPPTNVGSNT[Hyp]-NH2), the Relative activity worked out at 40% and the EC50 (in general, the concentration at which the effect is half-maximal) is 0.132 nM.

For `CC[C@H](C)[C@H](NC(=O)[C@@H]1CCCN1C(=O)[C@H](CCCCN)NC(=O)[C@H](CC(C)C)NC(=O)[C@H](CC(N)=O)NC(=O)[C@H](CC(N)=O)NC(=O)[C@H](CO)NC(=O)[C@H](CO)NC(=O)[C@H](Cc1c[nH]cn1)NC(=O)[C@H](CCCNC(=N)N)NC(=O)[C@H](CC(C)C)NC(=O)[C@H](Cc1ccccc1)NC(=O)[C@H](CC(=O)O)NC(=O)[C@H](C)NC(=O)[C@H](CC(C)C)NC(=O)[C@H](CCCNC(=N)N)NC(=O)[C@H](CCC(N)=O)NC(=O)[C@@H](NC(=O)[C@H](C)NC(=O)[C@H](C)NC(=O)[C@@H](NC(=O)[C@H](CO)NC(=O)[C@H](CC(C)C)NC(=O)[C@H](CCC(N)=O)NC(=O)[C@H](CO)NC(=O)[C@H](C)NC(=O)COCCOCCNC(=O)COCCOCCNC(=O)CC[C@H](NC(=O)CCCCCCCCCCCCCCCCCCC(=O)O)C(=O)O)[C@@H](C)O)[C@@H](C)O)C(=O)N[C@@H](CC(C)C)C(=O)N1CCC[C@H]1C(=O)N1CCC[C@H]1C(=O)N[C@H](C(=O)N[C@@H](CC(N)=O)C(=O)N[C@H](C(=O)NCC(=O)N[C@@H](CO)C(=O)N[C@@H](CC(N)=O)C(=O)N[C@H](C(=O)N1C[C@H](O)C[C@H]1C(N)=O)[C@@H](C)O)C(C)C)[C@@H](C)O` [M31] ({C20 diacid-γGlu-AEEA-AEEA}-ASQLSTAATQRLADFLRHSSNNLKPILPPTNVGSNT[Hyp]-NH2), the Relative activity is given as 30% and the EC50 worked out at 0.168 nM.

In the case of `CC[C@H](C)[C@H](NC(=O)[C@H](CC(=O)O)NC(=O)[C@H](CCCNC(=N)N)NC(=O)[C@H](CC(=O)O)NC(=O)[C@H](CCCNC(=N)N)NC(=O)[C@H](CC(=O)O)NC(=O)[C@@H](NC(=O)[C@H](Cc1ccccc1)NC(=O)[C@H](Cc1c[nH]cn1)NC(=O)[C@H](CCCNC(=N)N)NC(=O)[C@H](CC(C)C)NC(=O)[C@H](Cc1ccccc1)NC(=O)[C@H](CC(=O)O)NC(=O)[C@H](C)NC(=O)[C@H](CC(C)C)NC(=O)[C@H](CCCNC(=N)N)NC(=O)[C@H](CCC(N)=O)NC(=O)[C@@H](NC(=O)[C@H](C)NC(=O)[C@H](C)NC(=O)[C@@H](NC(=O)[C@H](CO)NC(=O)[C@H](CC(C)C)NC(=O)[C@H](CCC(N)=O)NC(=O)[C@H](CO)NC(=O)[C@H](C)NC(=O)CC[C@H](NC(=O)CCCCCCCCCCCCCCC(=O)O)C(=O)O)[C@@H](C)O)[C@@H](C)O)[C@@H](C)O)C(=O)N[C@@H](CC(C)C)C(=O)N1CCC[C@H]1C(=O)N1CCC[C@H]1C(=O)N[C@H](C(=O)N[C@@H](CC(N)=O)C(=O)N[C@H](C(=O)NCC(=O)N[C@@H](CO)C(=O)N[C@@H](CC(N)=O)C(=O)N[C@H](C(=O)N1CCC[C@H]1C(N)=O)[C@@H](C)O)C(C)C)[C@@H](C)O` [M23] ({C16 diacid-γGlu}-ASQLSTAATQRLADFLRHFTDRDRDILPPTNVGSNTP-NH2), the Relative activity is on record as 182% and the midpoint of the response, the EC50, lay at 0.017 nM.
